We go through one molecule from patent publication US11834428B2, “Dihydromyricetin nanocrystals and preparation method and application thereof” (Shaanxi University of Science and Technology, priority 2022, dated 2023).

A short description of data set [1]: Particle size of dihydromyricetin nanocrystals. The data set is classed as physicochemical. The settings on record: API. The procedure:
In order to describe the dihydromyricetin nanocrystals provided by the disclosure, the relevant properties of the embodiments 1 to 6 and the comparative embodiments are measured. 1. The Effect of Stabilizers on the Particle Size and Solubilization Effect of the Dihydromyricetin Nanocrystals, See Table 1.

A short description of data set [2]: Solubility of dihydromyricetin nanocrystals and API (solubility in cold water). Type of data set: physicochemical. The settings on record: for solubility: cold water. From the text:
1. The Effect of Stabilizers on the Particle Size and Solubilization Effect of the Dihydromyricetin Nanocrystals, See Table 1.

Values after ≈ are worked out from the molar mass of the structure shown.

For `O=C1c2c(O)cc(O)cc2O[C@H](c2cc(O)c(O)c(O)c2)[C@H]1O` [Dihydromyricetin API, Dihydromyricetin], in data set [1], the Particle size is on record as at least 12 μm. For the same molecule, the solubility (as a rule, the concentration that dissolves in the medium under given conditions) amounted to 300 µg/mL (≈ 937 µM) in data set [2] (aqueous with cosolvent or surfactant or cyclodextrin, stabilizer sodium dodecyl sulfate (SDS)) and 40 µg/mL (≈ 125 µM) in data set [2] (water, no stabilizer (/)). Moreover, the “Solubility in cold water” value in data set [2] (stabilizer Tween-80) stood at 600 µg/mL (≈ 1870 µM).
